{"source": "patent US10315994B2", "about": "“Photostable compounds, absorbing compounds and uses thereof” (Commonwealth Scientific and Industrial Research Organisation, priority 2015, dated 2019)", "key": {"[1]": {"assay": "Photostability of thin films exposed to xenon arc lamp", "type": "physicochemical", "details": "for % λmax (% of original absorbance remaining): absorbance at λmax, irradiated vs unirradiated; for % λmax (% of original absorbance remaining) / % abs total (% of original absorbance remaining): xenon arc lamp 1 hour, thin film; for Photostability, % remaining after irradiation: exposure to the lamp for 1 h; for % abs total (% of original absorbance remaining): sum of absorbance 290-400 nm", "procedure": "1 mL of a 3% solution of the test compound (30 mg of test compound in 1 mL solvent) was prepared in a solvent mix made up of 50% EtOH and 25% capric/caprylic triglyceride and 25% C12-C15 alkyl benzoate. 50 μL of this solution (containing 1.5 mg of test compound) was added carefully to the centre of a glass microscope slide and the volatile components left to evaporate in the dark for at least 3 hours to give a liquid film. […] The irradiation was performed in a fume cupboard where the air flow was sufficient to keep sample T<30° C. One hour's exposure represented a calculated radiation dose (using meter) of approximately 100 MED.\nIn order to calculate the photostability of the test compounds, the exposed slides were placed in a beaker and rinsed with 2×5 mL EtOH, 1×5 mL MeOH. The combined washings were then added to a 100 mL volumetric flask and made up to 100 mL total volume with methanol. The UV absorbance was then measured in a 10 mm cuvette. The percent stability is measured as the ratio of absorbance at λmax for the irradiated sample compared to the unirradiated sample. As a further measure, a comparison of the sum of the absorbance in the 290-400 nm range was calculated.\nThe thin films are a good surrogate for testing the stability of a candidate in a sunscreen formulation as they use cosmetic emollients as solvent and are formed at cosmetically relevant concentrations."}, "[2]": {"assay": "UV/visible absorbance characteristics (λmax, λcrit, ε, E 1%,1 cm)", "type": "physicochemical", "details": "for ε: in M-1 cm-1 (unit assumed); for Peak point of absorbance curve (figure legend): unirradiated control, FIGS. 3-5"}}, "note": "“Also recorded” adds a separate entry of the source.", "data": [{"compound": "CCC(=O)C1=CN(CC(C)C)CCC1(C)C", "note": "[Compound 1]", "values": [{"measurement": "% λmax (% of original absorbance remaining)", "setting": "[1]", "value": 21, "unit": "%"}, {"measurement": "Photostability, % remaining after irradiation", "setting": "[1]", "value": 21, "unit": "%"}, {"measurement": "% abs total (% of original absorbance remaining)", "setting": "[1]", "value": 24, "unit": "%"}]}, {"compound": "CC1(C)CCN(C(C)(C)C)C=C1C(=O)C(F)F", "values": [{"measurement": "E (1%, 1 cm)", "setting": "[2]; Table 5", "value": 1371}, {"measurement": "λcrit", "setting": "[2]; Table 5", "value": 331, "unit": "nm"}, {"measurement": "λmax", "setting": "[2]; Table 5", "value": 313, "unit": "nm"}, {"measurement": "ε", "setting": "[2]; Table 5", "value": 30868}, {"measurement": "Photostability (%)", "setting": "[1]; Table 5", "value": 43, "unit": "%"}]}, {"compound": "CC1(C)CCN(C(C)(C)C)C=C1C(=O)C(F)(F)F", "note": "[Compound 98]", "values": [{"measurement": "E (1%, 1 cm)", "setting": "[2]; Table 1", "value": 1380}, {"measurement": "λcrit", "setting": "[2]; Table 1", "value": 331, "unit": "nm"}, {"measurement": "λmax", "setting": "[2]; Table 1", "value": 315, "unit": "nm"}, {"measurement": "ε", "setting": "[2]; Table 1", "value": 36298}, {"measurement": "E (1%, 1 cm)", "setting": "[2]; Table 6", "value": 1380}, {"measurement": "λcrit", "setting": "[2]; Table 6", "value": 331, "unit": "nm"}, {"measurement": "λmax", "setting": "[2]; Table 6", "value": 315, "unit": "nm"}, {"measurement": "ε", "setting": "[2]; Table 6", "value": 36298}, {"measurement": "Peak point of absorbance curve (figure legend)", "setting": "[2]", "value": "approximately 320 nm"}, {"measurement": "Photostability (%)", "setting": "[1]; Table 6", "value": 89, "unit": "%"}, {"measurement": "% λmax (% of original absorbance remaining)", "setting": "[1]", "value": 88, "unit": "%"}, {"measurement": "Photostability, % remaining after irradiation", "setting": "[1]", "value": 88, "unit": "%"}, {"measurement": "% abs total (% of original absorbance remaining)", "setting": "[1]", "value": 84, "unit": "%"}]}, {"compound": "CC1(C)CCN(C(C)(C)C)C=C1C(=O)CCCCCCCCC(=O)C1=CN(C(C)(C)C)CCC1(C)C", "note": "[Compound 54]", "values": [{"measurement": "E (1%, 1 cm)", "setting": "[2]; Table 6", "value": 1197}, {"measurement": "ε", "setting": "[2]; Table 6", "value": 59850}, {"measurement": "Peak point of absorbance curve (figure legend)", "setting": "[2]", "value": "approximately 310 nm"}, {"measurement": "Photostability (%)", "setting": "[1]; Table 6", "value": 63, "unit": "%"}, {"measurement": "% λmax (% of original absorbance remaining)", "setting": "[1]", "value": 63, "unit": "%"}, {"measurement": "% abs total (% of original absorbance remaining)", "setting": "[1]", "value": 61, "unit": "%"}]}, {"compound": "CC(C)CN1C=C(C(=O)C(c2ccccc2)c2ccccc2)C(C)(C)CC1", "note": "[Compound 16]", "values": [{"measurement": "% λmax (% of original absorbance remaining)", "setting": "[1]", "value": 35, "unit": "%"}, {"measurement": "% abs total (% of original absorbance remaining)", "setting": "[1]", "value": 37, "unit": "%"}]}, {"compound": "CC1(C)CCN(C(C)(C)C)C=C1C(=O)C(Cl)(Cl)Cl", "note": "[drawing 124]", "values": [{"measurement": "E (1%, 1 cm)", "setting": "[2]; Table 5", "value": 497}, {"measurement": "λcrit", "setting": "[2]; Table 5", "value": 361, "unit": "nm"}, {"measurement": "λmax", "setting": "[2]; Table 5", "value": 334, "unit": "nm"}, {"measurement": "ε", "setting": "[2]; Table 5", "value": 16618}, {"measurement": "Photostability (%)", "setting": "[1]; Table 5", "value": 5, "unit": "%"}]}, {"compound": "CC(C)(C)Oc1ccc(C(=O)C2=CN(C(C)(C)C)CCC2(C)C)cc1", "note": "[Compound 88]", "values": [{"measurement": "Photostability (%)", "setting": "[1]; Table 7, benzoyl derivatives", "value": 38, "unit": "%"}]}, {"compound": "CC1(C)CCN(C(C)(C)C)C=C1C(=O)c1ccccc1", "note": "[Compound 179]", "values": [{"measurement": "Photostability, % remaining after irradiation", "setting": "[1]", "value": 76, "unit": "%"}]}, {"compound": "CC1(C)CCN(C(C)(C)C)C=C1C(=O)c1c(F)cccc1F", "note": "[Compound 184]", "values": [{"measurement": "Photostability (%)", "setting": "[1]; Table 7, benzoyl derivatives", "value": 90, "unit": "%"}]}, {"compound": "CCCCCCCC(=O)C1=CN(C(C)(C)C)CCC1(C)C", "note": "[319, 2]", "values": [{"measurement": "% λmax (% of original absorbance remaining)", "setting": "[1]", "value": 45, "unit": "%"}, {"measurement": "Photostability, % remaining after irradiation", "setting": "[1]", "value": "over 40%"}, {"measurement": "% abs total (% of original absorbance remaining)", "setting": "[1]", "value": 47, "unit": "%"}]}, {"compound": "Br.CCC(=O)C1=CN(CC(C)C)CCC1(C)C", "note": "[Compound 44]", "values": [{"measurement": "% λmax (% of original absorbance remaining)", "setting": "[1]", "value": 56, "unit": "%"}, {"measurement": "Photostability, % remaining after irradiation", "setting": "[1]", "value": 56, "unit": "%"}, {"measurement": "% abs total (% of original absorbance remaining)", "setting": "[1]", "value": 56, "unit": "%"}]}, {"compound": "CC1(C)CCN(C(C)(C)C)C=C1C(=O)C(Br)(Br)Br", "note": "[drawing 125]", "values": [{"measurement": "E (1%, 1 cm)", "setting": "[2]; Table 5", "value": 321}, {"measurement": "λcrit", "setting": "[2]; Table 5", "value": 361, "unit": "nm"}, {"measurement": "λmax", "setting": "[2]; Table 5", "value": 330, "unit": "nm"}, {"measurement": "ε", "setting": "[2]; Table 5", "value": 14203}, {"measurement": "Photostability (%)", "setting": "[1]; Table 5", "value": 13, "unit": "%"}]}, {"compound": "CC1(C)CCN(C(C)(C)C)C=C1C(=O)c1ccncc1", "note": "[Compound 58]", "values": [{"measurement": "Photostability (%)", "setting": "[1]; Table 7, benzoyl derivatives", "value": 78, "unit": "%"}]}, {"compound": "CC1(C)CCN(C(C)(C)C)C=C1C(=O)CC(=O)c1ccccc1", "note": "[Compound 94]", "values": [{"measurement": "% λmax (% of original absorbance remaining)", "setting": "[1]", "value": 11, "unit": "%"}, {"measurement": "Photostability, % remaining after irradiation", "setting": "[1]", "value": "less than 20%"}, {"measurement": "Colour change on exposure to irradiation", "setting": "[1]; film", "value": "goes from bright yellow to colourless; also recorded: became perfectly colourless"}, {"measurement": "% abs total (% of original absorbance remaining)", "setting": "[1]", "value": 21, "unit": "%"}]}, {"compound": "CN(C)c1ccc(C(=O)C2=CN(C(C)(C)C)CCC2(C)C)cc1", "note": "[Compound 86]", "values": [{"measurement": "Photostability (%)", "setting": "[1]; Table 7, benzoyl derivatives", "value": 30, "unit": "%"}, {"measurement": "Photostability, % remaining after irradiation", "setting": "[1]", "value": 30, "unit": "%"}]}, {"compound": "CC1(C)CCN(c2cccc(N3C=C(C(=O)C(F)(F)F)C(C)(C)CC3)c2)C=C1C(=O)C(F)(F)F", "note": "[Compound 160]", "values": [{"measurement": "E (1%, 1 cm)", "setting": "[2]; Table 1", "value": 1380}, {"measurement": "λcrit", "setting": "[2]; Table 1", "value": 364, "unit": "nm"}, {"measurement": "λmax", "setting": "[2]; Table 1", "value": 346, "unit": "nm"}, {"measurement": "ε", "setting": "[2]; Table 1", "value": 67344}, {"measurement": "E (1%, 1 cm)", "setting": "[2]; Table 4", "value": 1380}, {"measurement": "ε", "setting": "[2]; Table 4", "value": 67344}, {"measurement": "Photostability (% remains)", "setting": "[1]; after 1.5 h irradiation", "value": "99 (after 1.5 h, others = 1 h) %"}]}]}
